Each structure is given as a SMILES string. Activity calls are given as the source filed them. The rule behind the calls is not given here.

In assay [1] the target is T1, Peroxisome proliferator-activated receptor gamma (Homo sapiens) (UniProt P37231).
T1 sequence (whole entry): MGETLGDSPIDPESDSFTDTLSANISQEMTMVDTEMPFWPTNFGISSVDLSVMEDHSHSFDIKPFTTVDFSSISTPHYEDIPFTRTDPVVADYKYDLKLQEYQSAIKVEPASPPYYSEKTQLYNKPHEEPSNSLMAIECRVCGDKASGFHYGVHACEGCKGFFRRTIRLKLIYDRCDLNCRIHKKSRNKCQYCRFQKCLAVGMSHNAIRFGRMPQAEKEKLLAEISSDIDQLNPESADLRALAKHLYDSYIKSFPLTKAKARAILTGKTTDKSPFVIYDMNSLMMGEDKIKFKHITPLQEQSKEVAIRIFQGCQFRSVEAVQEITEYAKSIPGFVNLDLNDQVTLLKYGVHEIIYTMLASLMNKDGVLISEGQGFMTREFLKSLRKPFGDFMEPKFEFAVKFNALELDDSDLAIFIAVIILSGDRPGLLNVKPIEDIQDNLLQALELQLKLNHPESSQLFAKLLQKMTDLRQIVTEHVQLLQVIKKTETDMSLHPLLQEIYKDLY
The assay can be described thus: Agonist activity at N-terminal Gal4 fused human PPARgamma LBD transfected in HEK293 cells at < 10 uM after 24 hrs by luciferase reporter gene assay. In kind it is cell-based.

Assay [2] addresses T2, Retinoic acid receptor RXR-gamma (Homo sapiens) (UniProt P48443).
T2 sequence (whole entry): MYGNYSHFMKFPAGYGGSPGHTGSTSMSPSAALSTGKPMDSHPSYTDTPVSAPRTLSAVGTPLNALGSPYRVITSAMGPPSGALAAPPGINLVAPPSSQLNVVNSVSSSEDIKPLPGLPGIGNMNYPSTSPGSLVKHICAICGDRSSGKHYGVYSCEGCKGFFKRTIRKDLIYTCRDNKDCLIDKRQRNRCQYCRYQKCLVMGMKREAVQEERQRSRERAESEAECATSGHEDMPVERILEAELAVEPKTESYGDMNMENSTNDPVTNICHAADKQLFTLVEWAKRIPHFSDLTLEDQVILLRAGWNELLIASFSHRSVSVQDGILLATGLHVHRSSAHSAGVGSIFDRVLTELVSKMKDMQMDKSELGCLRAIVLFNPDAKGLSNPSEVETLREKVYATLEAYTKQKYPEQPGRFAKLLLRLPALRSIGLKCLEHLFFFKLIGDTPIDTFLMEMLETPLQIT
Put plainly: Agonist activity at RXRgamma (unknown origin) at < 20 uM.

Assay [3] concerns the target T3, Retinoic acid receptor RXR-beta (Homo sapiens) (UniProt P28702).
T3 sequence (whole entry): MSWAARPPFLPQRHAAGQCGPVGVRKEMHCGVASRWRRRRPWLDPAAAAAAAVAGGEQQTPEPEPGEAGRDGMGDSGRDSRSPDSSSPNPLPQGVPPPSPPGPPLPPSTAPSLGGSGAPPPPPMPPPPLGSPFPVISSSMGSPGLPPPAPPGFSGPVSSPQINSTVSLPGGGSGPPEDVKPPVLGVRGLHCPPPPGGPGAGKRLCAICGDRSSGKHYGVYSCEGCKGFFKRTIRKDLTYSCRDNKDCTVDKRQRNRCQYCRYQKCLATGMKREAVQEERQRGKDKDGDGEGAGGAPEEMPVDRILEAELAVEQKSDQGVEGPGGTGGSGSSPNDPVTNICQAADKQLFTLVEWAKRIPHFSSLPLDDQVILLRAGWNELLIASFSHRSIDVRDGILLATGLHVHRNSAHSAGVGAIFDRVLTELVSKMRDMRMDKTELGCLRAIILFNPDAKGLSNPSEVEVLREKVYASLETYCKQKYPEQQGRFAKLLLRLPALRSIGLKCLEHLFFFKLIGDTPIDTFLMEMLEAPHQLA
Put plainly: Agonist activity at RXRbeta (unknown origin) at < 20 uM.

Assay [4] deals with T4, Peroxisome proliferator-activated receptor alpha (Homo sapiens) (UniProt Q07869).
T4 sequence (whole entry): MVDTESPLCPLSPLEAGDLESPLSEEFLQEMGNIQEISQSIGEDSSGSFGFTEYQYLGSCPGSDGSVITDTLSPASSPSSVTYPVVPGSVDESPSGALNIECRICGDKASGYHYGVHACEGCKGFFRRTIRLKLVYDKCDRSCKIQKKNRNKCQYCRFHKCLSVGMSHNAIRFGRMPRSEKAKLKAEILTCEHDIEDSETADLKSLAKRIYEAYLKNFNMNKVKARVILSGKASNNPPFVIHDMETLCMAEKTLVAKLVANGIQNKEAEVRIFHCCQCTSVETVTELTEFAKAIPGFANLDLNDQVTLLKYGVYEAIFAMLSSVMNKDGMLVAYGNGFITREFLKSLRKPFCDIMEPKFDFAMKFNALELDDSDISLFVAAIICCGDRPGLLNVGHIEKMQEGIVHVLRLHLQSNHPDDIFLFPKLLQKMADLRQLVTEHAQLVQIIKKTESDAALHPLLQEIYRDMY
Put plainly: Agonist activity at N-terminal Gal4 fused human PPARalpha LBD transfected in HEK293 cells after 24 hrs by luciferase reporter gene assay relative to GW7647. The assay is classed as cell-based.

Assay [5] addresses T5, Oxysterols receptor LXR-beta (Homo sapiens) (UniProt P55055).
T5 sequence (whole entry): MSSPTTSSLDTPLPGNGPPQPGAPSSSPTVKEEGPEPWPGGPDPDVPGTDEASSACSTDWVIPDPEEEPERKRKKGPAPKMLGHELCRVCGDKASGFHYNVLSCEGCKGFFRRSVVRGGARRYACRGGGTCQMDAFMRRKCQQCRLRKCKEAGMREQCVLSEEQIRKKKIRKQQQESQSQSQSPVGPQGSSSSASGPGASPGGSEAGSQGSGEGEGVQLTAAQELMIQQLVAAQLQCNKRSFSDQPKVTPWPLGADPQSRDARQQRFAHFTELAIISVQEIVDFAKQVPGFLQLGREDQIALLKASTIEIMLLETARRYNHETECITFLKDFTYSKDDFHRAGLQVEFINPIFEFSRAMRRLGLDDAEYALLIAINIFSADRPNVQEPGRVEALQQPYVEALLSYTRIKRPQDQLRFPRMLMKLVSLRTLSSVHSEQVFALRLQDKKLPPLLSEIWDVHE
The assay can be described thus: Agonist activity at LXRbeta (unknown origin) at < 20 uM.

On to `CC(=O)NC(C)c1nc(-c2ccc(Oc3ccc(OCc4ccccc4)cc3)cc2)no1` (stereo not given), for which the result in assay [1], in assay [2], in assay [3] and in assay [5] was inactive. The same compound came in with an Emax in assay [4] of 16 to 35%.

These data come from ChEMBL document CHEMBL4428109, “Structure-activity relationship studies of non-carboxylic acid peroxisome proliferator-activated receptor α/δ (PPARα/δ) dual agonists” (Bioorg Med Chem, 2016).
